# Patent US6818407B2, “Anti-endotoxic antimicrobial cationic peptides and methods of use therfor” (priority 1998, dated 2004)
# Marks after values point to notes of the source that are not given here.
# Tests used:
# [1] = Lethal endotoxemia in galactosamine-sensitized mice; format: in vivo, CD-1 mice; details: peptide 200 μg intraperitoneal within 10 min of 10 μg LPS; 24 hours post injection; 5 mice per group; no peptide 100
# Protocol: To confirm this in vivo, endotoxic shock was induced by intraperitoneal injection of 10 μg of E.coli 0111:B4 LPS in phosphate-buffered saline (PBS; pH 7.2) into galactosamine-sensitized 8- to 10- week old female CD-1 mice (5 per group). In experiments involving peptides, 200 μg in 100 μl of sterile water was injected at separate intraperitoneal sites within 10 min of LPS injection. Survival was monitored at 24 hours post injection.
# RAW 264.7 [2] = assay: Inhibition of LPS-induced TNF production by RAW 264.7 macrophage cell line; format: cell-based, murine; details: E. coli LPS 100 ng/ml, peptide 20 μg/ml, 6 hr; FIG. 2
# Protocol: (§1) LPS (endotoxin) binding was examined by the dansyl polymyxin binding assay. All peptides bound to LPS (FIG. 1). The anti-endotoxic activity of the peptides was tested in the murine cell line RAW 264.7 which was obtained from the ATCC (ATCC #TIB-71), (Rockville, Md.). TNF induction experiments with LPS were performed as described by Kelly et al (Infect. Immun., 59:4491-6, 1991). Briefly, Dulbecco's modified Eagle medium was aspirated from RAW 264.7 cells grown overnight in 24-well tissue culture plates after seeding with 10^6 cells per ml per well and replaced with fresh medium. LPS at a final concentration of 100 ng/ml, was incubated with the cells for 6 hr. at 37° C. in 5% CO2 prior to assaying for cytokine production. At the same time as LPS addition, cationic peptides were added at a final concentration of 20 μg/ml. All assays were performed three times with similar results.
# (§2) TNF was measured in cell culture supernatants and mouse serum on the basis of cytoxicity for L929 fibroblast cells. […] TNF activity was expressed in units as the reciprocal of the dilution of TNF that caused 50% cytotoxicity of L929 cells, as computed using the ELISA+program (Meddata Inc, New York, N.Y.). For the current study, one unit of TNF corresponded to 62.5 pg/ml of recombinant murine TNF (Genzyme Corp.) IL-6 production was measured by ELISA with specific antibody.
# RAW 264.7 [3] = assay: Suppression of LPS-induced IL-6 production by RAW 264.7 macrophage cell line; format: cell-based, murine; details: LPS 100 ng/ml, peptide 20 μg/ml, 6 hr, ELISA, FIG. 3
# Protocol: as §1, §2
# [4] = test system: P. aeruginosa gyrase mutant (Nal A, H374); format: cell-based
# Protocol: The biological activity of the peptides can be determined by standard methods known to those of skill in the art, such as Aminimal inhibitory concentration (MIC)≅ assay described in the present examples, whereby the lowest concentration at which no change in OD is observed for a given period of time is recorded as MIC. Alternatively, Afractional inhibitory concentration (FIC)≅ is also useful for determination of synergy between the peptides of the invention, or the peptides in combination with known antibiotics. FICs are performed by checkerboard titrations of peptides in one dimension of a microtiter plate, and of antibiotics in the other dimension, for example. The FIC is calculated by looking at the impact of one antibiotic on the MIC of the other and vice versa. […] Preferably, an FIC of less than 0.5 is obtained for synergism. As used herein, FIC can be determined as follows: [formula]
# To test whether the peptides of the invention synergize with various antibiotics, the following method was employed. Fractional Inhibitory Concentration (FIC) was used to determine synergy of peptides combined with antibiotics (e.g., carbenicillin/ciprofloxacin) against Pseudomonas aeruginosa. The following methodology was followed:
# (1) Determination of MIC of cationic peptides (MIC A):
# 100 μl Mueller Hinton broth (MHB) was added per well
# 12.5 μl of 10× test concentration peptide was added per well to get final peptide concentration of e.g., 128, 64, 32, . . . 0.025 μg/ml from row 1 to 11;
# 10 μl of 10^−4 dilution of overnight bacterial culture was added per well.
# (2) Determination of MIC of Carbenicillin/Ciprofloxacin (MIC B):
# 100 μl MHB was added per well;
# 100 μl of 2× test concentration of antibiotic was added in the first well of the row, and doubling dilutions performed across the plate from column 1 to 11;
# (3) Determination of MIC of antibiotics (B) when combined with peptides at concentration A:
# 100 μl Carbenicillin (512 μg/ml) or Ciprofloxacin (8 μg/ml) was added in each well of column 1; doubling dilutions were performed across the plate;
# 100 μl of the peptide was added in all wells of row 1, mixed, and 100 μl withdrawn and added to row 2, etc., creating a checkerboard titration.
# 10 μl of 10^−4 dilution of overnight culture was added per well;
# plates were incubated at 37EC for 18-24 hours. Combination MIC values A and B were taken as the lowest concentration of drug that reduced bacterial growth by more than 50% in any given column.
# (4) FIC index=FICA+FICB=(A)/MIC A+(B)/MIC B. An FIC index of approximately 0.5 or less indicates synergy; 1.0 reflects additivity; and >1.0 indicates antagonism.
# [5] = test system: Pseudomonas aeruginosa PAO; assay: Chronic Pseudomonas aeruginosa lung infection in rats, aerosol treatment; format: in vivo; details: lungs, quantitative culture; aerosol 10 ml of 5 mg/ml once daily for three days; untreated control 1.2 × 10^6
# Protocol: Fifteen animals were utilized in these experiments (5 animals in each of three groups). All animals were inoculated intratracheal with 10^4 Pseudomonas aeruginosa PAO in agar beads. Three days following inoculation, rats were exposed to aerosol preparations from and Aero-Tech II nebulizer (CIS-US, Bedford, Mass.). The nebulizer was operated at 45 psi, with a flow rate of 10 L/min and contained 10 ml of the preparation to be aerosolized. The 10 ml volume was dispensed in 25-30 minutes. Animals were treated once daily for three days; control animals received daily exposure to 10 mls of 10 mM sodium citrate (pH 7.0); one treatment group received daily exposure to 10 mls of 10 mM sodium citrate (pH 7.0) containing 5 mg/ml of CM3; one treatment group received daily exposure to 10 mls of 10 mM sodium citrate (pH 7.0) containing 5 mg/ml of Cpα2. Animals were sacrificed on day 3, at one hour following the last exposure. The lungs of the treatment and control animals were removed for quantitative culture.
# [6] = test system: P. aeruginosa efflux mutant (Nal B, H744); assay: microbe, parasite or virus in culture; format: cell-based
SMILES,Mortality (%) [1],Inhibition of TNF production (neutralization of endotoxin) (RAW 264.7 [2]),Suppression of IL-6 production (RAW 264.7 [3]),"(B) MIC of Nal when combined with peptide ([4]; nalidixic acid with peptide at concentration (A), Nal A, unit from method)","FIC index ([4]; peptide + nalidixic acid, Nal A)","MIC A MIC of Peptides ([4]; peptide alone, P. aeruginosa gyrase mutant Nal A)","(A) Peptide doses together with Nal ([4]; peptide concentration in combination with nalidixic acid, Nal A)",Suppression of IL-6 production (RAW 264.7 [3]; listed as Cpα2),Mean Colony Forming Units +/− S.D. [5],"(B) MIC of Nal when combined with peptide ([6]; nalidixic acid with peptide at concentration (A), efflux mutant Nal B, H744, unit from method)","FIC index ([6]; peptide + nalidixic acid, efflux mutant Nal B, H744)","MIC A MIC of Peptides ([6]; peptide alone, P. aeruginosa efflux mutant Nal B, H744 (Table 6))","(A) Peptide doses together with Nal ([6]; peptide concentration in combination with nalidixic acid, efflux mutant Nal B, H744)"
CC[C@H](C)[C@H](NC(=O)CNC(=O)[C@@H](NC(=O)[C@H](CCCCN)NC(=O)[C@H](CCCCN)NC(=O)[C@H](Cc1ccccc1)NC(=O)[C@H](CC(C)C)NC(=O)[C@H](CCCCN)NC(=O)[C@H](Cc1c[nH]c2ccccc12)NC(=O)[C@@H](N)CCCCN)[C@@H](C)CC)C(=O)NCC(=O)N[C@@H](C)C(=O)N[C@H](C(=O)N[C@@H](CC(C)C)C(=O)N[C@@H](CCCCN)C(=O)N[C@H](C(=O)N[C@@H](CC(C)C)C(=O)N[C@@H](CCCCN)C(=O)N[C@H](C(=O)N[C@@H](CC(C)C)C(=O)N[C@H](C(=O)N[C@H](C(=O)NCC(=O)N[C@@H](CC(C)C)C(=O)N1CCC[C@H]1C(=O)N[C@@H](C)C(=O)N[C@@H](CC(C)C)C(=O)N[C@@H](CCCCN)C(=O)N[C@@H](CC(C)C)C(=O)N[C@H](C(=O)N[C@@H](CC(C)C)C(=O)N[C@@H](CCCCN)C(=O)O)[C@@H](C)O)[C@@H](C)O)[C@@H](C)O)C(C)C)C(C)C)C(C)C [CM4],80%,clearly better than others,,,,,,,,,,,
CC[C@H](C)[C@H](NC(=O)CNC(=O)[C@@H](NC(=O)[C@H](CCCCN)NC(=O)[C@H](CCCCN)NC(=O)[C@H](Cc1ccccc1)NC(=O)[C@H](CC(C)C)NC(=O)[C@H](CCCCN)NC(=O)[C@H](Cc1c[nH]c2ccccc12)NC(=O)[C@H](CC(C)C)NC(=O)[C@@H](N)CCCCN)[C@@H](C)CC)C(=O)NCC(=O)N[C@@H](C)C(=O)N[C@H](C(=O)N[C@@H](CC(C)C)C(=O)N[C@@H](CCCCN)C(=O)N[C@H](C(=O)N[C@@H](CC(C)C)C(=O)N[C@@H](CCCCN)C(=O)N[C@H](C(=O)N[C@@H](CC(C)C)C(=O)N[C@H](C(=O)N[C@H](C(=O)NCC(=O)N[C@@H](CC(C)C)C(=O)N1CCC[C@H]1C(=O)N[C@@H](C)C(=O)N[C@@H](CC(C)C)C(=O)N[C@@H](CCCCN)C(=O)N[C@@H](CC(C)C)C(=O)N[C@H](C(=O)N[C@@H](CC(C)C)C(=O)N[C@@H](CCCCN)C(=O)O)[C@@H](C)O)[C@@H](C)O)[C@@H](C)O)C(C)C)C(C)C)C(C)C [CM7],100%,,clearly superior in their ability to suppress IL-6 production,,,,,,,,,,
CC[C@H](C)[C@H](NC(=O)CNC(=O)[C@@H](NC(=O)[C@H](CCCCN)NC(=O)[C@H](CCCCN)NC(=O)[C@@H](NC(=O)[C@H](Cc1ccccc1)NC(=O)[C@H](CCCCN)NC(=O)[C@H](CCCCN)NC(=O)[C@H](Cc1c[nH]c2ccccc12)NC(=O)[C@@H](N)CCCCN)[C@@H](C)CC)[C@@H](C)CC)C(=O)NCC(=O)N[C@@H](C)C(=O)N[C@H](C(=O)N[C@@H](CC(C)C)C(=O)N[C@@H](CCCCN)C(=O)N[C@H](C(=O)N[C@@H](CC(C)C)C(=O)N[C@H](C(=O)N[C@H](C(=O)NCC(=O)N[C@@H](CC(C)C)C(=O)N1CCC[C@H]1C(=O)N[C@@H](C)C(=O)N[C@@H](CC(C)C)C(=O)N[C@@H](CCCCN)C(=O)N[C@@H](CC(C)C)C(=O)N[C@H](C(=O)N[C@@H](CCCCN)C(=O)N[C@@H](CCCCN)C(=O)O)[C@@H](C)O)[C@@H](C)O)[C@@H](C)O)C(C)C)C(C)C [CPα2],,clearly better than others,clearly superior in their ability to suppress IL-6 production,800 µg/mL,0.50,4 µg/mL,1 µg/mL,superior in their ability to suppress IL-6 production,6.8 × 10^4 +/− 3.6 × 10^4* CFU,800 µg/mL,0.63,4 µg/mL,0.5 µg/mL
